# Assay results reported in PMC12595434, “Development of retinoid nuclear receptor pathway antagonists through targeting aldehyde dehydrogenase 1A3” (iScience, 2025).
# Tests used:
# hERG = hERG (Homo sapiens, UniProt Q12809); assay: hERG patch-clamp; format: cell-based
# CYP2C19 = CYP2C19 (Homo sapiens, UniProt P33261); assay: CYP inhibition; format: in vitro ADME
# CYP3A4 = CYP3A4 (Homo sapiens, UniProt P08684); assay: CYP inhibition; format: in vitro ADME
# Protein binding (human) = format: in vitro ADME; conditions: plasma
# Excerpt: Table 1 Physiochemical, biochemical, and metabolic profile of lead compounds MBE1 and MBE1.5 | column: MBE1; MBE1.5
# CYP2C9 = CYP2C9 (Homo sapiens, UniProt P11712); assay: CYP inhibition; format: in vitro ADME
# [1] = Hepatocyte stability (human); format: in vitro ADME; conditions: hepatocytes, read-out: Hepatocyte T1/2 (human)
# human ALDH1A1 = molecular target: T1, human ALDH1A1 (Homo sapiens, UniProt P00352); assay: Recombinant enzyme activity assay; format: biochemical; conditions: dose titration, up to 10 μM
# T1 construct: made in house; host or cells: BL21-DE3 E. coli
# T1 sequence (P00352 1-501): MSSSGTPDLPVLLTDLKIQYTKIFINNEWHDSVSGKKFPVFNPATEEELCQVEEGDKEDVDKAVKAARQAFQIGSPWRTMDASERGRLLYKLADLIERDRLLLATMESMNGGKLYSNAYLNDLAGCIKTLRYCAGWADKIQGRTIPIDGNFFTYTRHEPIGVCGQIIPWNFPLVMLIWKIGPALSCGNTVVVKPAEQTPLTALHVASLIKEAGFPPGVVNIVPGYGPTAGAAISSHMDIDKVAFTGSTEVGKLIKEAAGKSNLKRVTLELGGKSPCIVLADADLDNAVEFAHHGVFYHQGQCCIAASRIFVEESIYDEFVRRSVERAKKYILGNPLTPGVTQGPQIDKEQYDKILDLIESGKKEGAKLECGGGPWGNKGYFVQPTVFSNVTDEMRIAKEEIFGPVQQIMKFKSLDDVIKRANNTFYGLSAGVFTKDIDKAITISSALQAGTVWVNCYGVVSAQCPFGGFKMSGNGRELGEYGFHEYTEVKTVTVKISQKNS
# human ALDH1A2 = molecular target: T2, human ALDH1A2 (Homo sapiens, UniProt O94788); assay: Recombinant enzyme activity assay; format: biochemical; conditions: for IC50: recombinant activity assay (Table 1), read-out: IC50 molecular, human ALDH1A2
# T2 construct: made in house; host or cells: BL21-DE3 E. coli
# T2 sequence (O94788 1-518): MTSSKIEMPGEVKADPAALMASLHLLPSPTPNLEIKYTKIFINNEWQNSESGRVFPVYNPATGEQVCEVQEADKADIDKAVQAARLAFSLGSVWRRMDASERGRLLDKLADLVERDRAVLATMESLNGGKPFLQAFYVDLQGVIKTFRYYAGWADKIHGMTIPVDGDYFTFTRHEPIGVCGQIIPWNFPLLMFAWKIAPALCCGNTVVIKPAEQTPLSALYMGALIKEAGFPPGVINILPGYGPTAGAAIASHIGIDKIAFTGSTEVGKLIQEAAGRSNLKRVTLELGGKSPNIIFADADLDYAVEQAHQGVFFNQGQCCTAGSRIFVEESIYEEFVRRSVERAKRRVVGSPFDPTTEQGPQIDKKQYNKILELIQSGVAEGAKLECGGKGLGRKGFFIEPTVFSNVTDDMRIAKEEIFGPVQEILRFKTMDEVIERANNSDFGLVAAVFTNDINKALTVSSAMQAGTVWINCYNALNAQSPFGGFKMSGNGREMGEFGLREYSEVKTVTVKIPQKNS
# [2] = Microsomal stability (mouse); format: in vitro ADME; conditions: microsomes, read-out: Microsomal T1/2 (mouse)
# Sequence of hERG (Q12809 whole entry): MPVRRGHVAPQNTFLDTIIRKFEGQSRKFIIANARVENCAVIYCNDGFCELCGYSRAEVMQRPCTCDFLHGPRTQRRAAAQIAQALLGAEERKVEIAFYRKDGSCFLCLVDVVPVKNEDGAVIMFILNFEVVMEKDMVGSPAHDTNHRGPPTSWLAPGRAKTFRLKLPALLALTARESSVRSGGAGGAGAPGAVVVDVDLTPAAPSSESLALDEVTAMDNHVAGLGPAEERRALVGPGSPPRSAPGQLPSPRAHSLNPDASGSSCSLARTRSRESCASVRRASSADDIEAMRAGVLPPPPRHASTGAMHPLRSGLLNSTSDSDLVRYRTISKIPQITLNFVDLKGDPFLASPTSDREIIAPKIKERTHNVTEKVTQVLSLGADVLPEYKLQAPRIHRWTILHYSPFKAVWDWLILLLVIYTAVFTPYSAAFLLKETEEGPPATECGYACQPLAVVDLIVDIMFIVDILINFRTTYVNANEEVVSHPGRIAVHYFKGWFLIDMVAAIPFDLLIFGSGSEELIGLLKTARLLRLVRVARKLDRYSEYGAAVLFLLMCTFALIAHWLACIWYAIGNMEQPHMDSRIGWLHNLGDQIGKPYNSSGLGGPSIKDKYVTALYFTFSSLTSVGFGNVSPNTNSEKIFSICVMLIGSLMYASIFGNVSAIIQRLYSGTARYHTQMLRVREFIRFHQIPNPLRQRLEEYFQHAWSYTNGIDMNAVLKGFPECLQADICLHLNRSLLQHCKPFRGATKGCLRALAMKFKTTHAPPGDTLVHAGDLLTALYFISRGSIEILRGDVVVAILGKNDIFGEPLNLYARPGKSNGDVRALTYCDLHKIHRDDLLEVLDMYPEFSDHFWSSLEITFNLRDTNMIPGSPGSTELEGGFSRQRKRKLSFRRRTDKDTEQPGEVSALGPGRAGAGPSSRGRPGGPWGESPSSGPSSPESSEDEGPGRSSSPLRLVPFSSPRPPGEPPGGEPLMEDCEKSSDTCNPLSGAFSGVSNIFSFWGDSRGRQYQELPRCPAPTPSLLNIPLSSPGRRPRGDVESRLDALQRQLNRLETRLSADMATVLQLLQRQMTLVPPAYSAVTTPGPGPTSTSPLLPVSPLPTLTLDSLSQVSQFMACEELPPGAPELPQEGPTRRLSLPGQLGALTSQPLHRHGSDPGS
# Sequence of CYP2C9 (P11712 whole entry): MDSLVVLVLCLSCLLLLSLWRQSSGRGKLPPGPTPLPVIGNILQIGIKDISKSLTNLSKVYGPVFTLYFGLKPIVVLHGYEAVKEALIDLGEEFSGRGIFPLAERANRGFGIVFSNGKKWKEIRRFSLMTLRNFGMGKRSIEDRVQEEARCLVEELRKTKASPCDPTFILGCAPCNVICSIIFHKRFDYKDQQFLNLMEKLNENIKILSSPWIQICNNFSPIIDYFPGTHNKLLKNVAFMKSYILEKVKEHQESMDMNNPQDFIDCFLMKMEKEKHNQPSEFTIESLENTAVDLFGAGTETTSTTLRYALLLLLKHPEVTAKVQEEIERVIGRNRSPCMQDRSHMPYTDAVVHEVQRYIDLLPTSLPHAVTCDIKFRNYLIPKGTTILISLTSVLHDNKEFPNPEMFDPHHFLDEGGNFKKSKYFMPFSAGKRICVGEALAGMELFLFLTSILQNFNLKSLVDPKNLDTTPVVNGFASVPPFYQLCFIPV
# Sequence of CYP2C19 (P33261 whole entry): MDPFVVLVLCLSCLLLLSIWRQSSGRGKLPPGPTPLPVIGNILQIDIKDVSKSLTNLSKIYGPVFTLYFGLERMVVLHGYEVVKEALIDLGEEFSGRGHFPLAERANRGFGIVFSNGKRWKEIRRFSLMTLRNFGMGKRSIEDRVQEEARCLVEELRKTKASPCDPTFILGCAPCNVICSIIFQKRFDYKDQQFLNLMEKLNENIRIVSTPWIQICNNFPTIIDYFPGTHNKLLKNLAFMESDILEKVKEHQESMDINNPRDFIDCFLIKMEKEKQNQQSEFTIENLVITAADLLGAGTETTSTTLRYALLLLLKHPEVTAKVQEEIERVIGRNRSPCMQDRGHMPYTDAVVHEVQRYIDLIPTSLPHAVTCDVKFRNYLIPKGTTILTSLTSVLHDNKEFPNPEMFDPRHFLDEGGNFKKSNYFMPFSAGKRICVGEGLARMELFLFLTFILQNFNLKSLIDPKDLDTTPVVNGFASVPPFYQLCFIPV
# Sequence of CYP3A4 (P08684 whole entry): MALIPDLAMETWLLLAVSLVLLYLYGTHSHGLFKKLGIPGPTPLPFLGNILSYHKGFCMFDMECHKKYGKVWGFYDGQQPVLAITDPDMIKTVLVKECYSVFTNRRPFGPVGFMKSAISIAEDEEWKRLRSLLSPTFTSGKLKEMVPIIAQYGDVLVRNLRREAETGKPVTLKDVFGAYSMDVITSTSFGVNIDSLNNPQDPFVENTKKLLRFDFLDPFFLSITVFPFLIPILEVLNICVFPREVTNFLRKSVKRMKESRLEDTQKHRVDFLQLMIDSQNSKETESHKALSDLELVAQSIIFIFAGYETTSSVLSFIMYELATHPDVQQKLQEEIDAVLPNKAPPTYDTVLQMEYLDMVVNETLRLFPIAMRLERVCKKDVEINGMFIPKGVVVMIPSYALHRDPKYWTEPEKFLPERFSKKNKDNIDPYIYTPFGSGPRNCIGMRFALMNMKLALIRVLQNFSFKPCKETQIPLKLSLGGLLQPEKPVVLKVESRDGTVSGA
"inhibitory activity against ALDH1A2 (in words) (human ALDH1A2; dose titration, up to 10 μM)",Structure (SMILES),IC50 (hERG) [µM],inhibition at 10 µM (CYP2C19) [%],inhibition at 10 µM (CYP3A4) [%],fraction unbound (Protein binding (human)),inhibition at 10 µM (CYP2C9) [%],half-life [1] [min],inhibitory activity against ALDH1A1 (in words) (human ALDH1A1),fold lower affinity for ALDH1A2 than for ALDH1A3 (human ALDH1A2; biochemical inhibition of each isoform) [fold],IC50 (human ALDH1A2) [µM],half-life [2] [min]
,"CCc1cnccc1C(=O)Nc1cc2c(cc1F)NC(=O)CC2 [MBE1, 3-ethyl-N-(7-fluoro-2-oxo-3,4-dihydro-1H-quinolin-6-yl)pyridine-4-carboxamide]",26.6,15.8,42,0.527,13.9,> 217,no inhibition,4,3.33,43.6
minimal inhibition,"CCc1ccccc1C(=O)Nc1cc2c(cc1F)NC(=O)CC2 [MBE1.5, 2-ethyl-N-(7-fluoro-2-oxo-3,4-dihydro-1H-quinolin-6-yl)benzamide]",> 30,0,6.3,0.137,5.6,> 217,no inhibition,,5,112
